{"source": "paper PMC10937738", "about": "“Evaluation of the photoprotective and antioxidant potential of an avobenzone derivative” (Frontiers in Physiology, 2024)", "key": {"[1]": {"assay": "Photoreactivity ROS assay (OECD TG 495): singlet oxygen (SO) and superoxide anion (SA) generation", "method": "The photoreactivity assay was conducted to detect the generation of oxygen singlet (^1O2; SO) and superoxide anion (O2 ^−•; SA), according to OECD TG n° 495, as described in [Freitas et al. (2015)]. […] SO generation was detected by spectrophotometric measurement of p-nitrosodimethylaniline (RNO) bleaching, followed by decreased absorbance of RNO at 440 nm and SA generation was detected by observing the reduction of nitroblue tetrazolium (NBT) at 560 nm. The assay was performed in triplicate in three independent experiments.\nAccording to the ROS Assay protocol ([OECD, 2019b]), the compound’s photoreactivity is classified according to Table 2."}, "3T3 BALB/c fibroblasts": {"system": "3T3 BALB/c fibroblasts", "assay": "3T3 Neutral red uptake phototoxicity test (3T3 NRU PT, OECD TG 432)", "type": "cell-based", "settings": "UVA 9 J/cm^2", "method": "The 3t3 Neutral red uptake phototoxicity (3t3 NRU PT) test was performed in accordance to OECD TG n° 432 ([OECD, 2019a]) using 3T3 BALB/c fibroblasts cells from the Cell Bank of Rio de Janeiro (Rio de Janeiro, Brazil). Fibroblasts were cultured in DMEM supplemented with calf serum (10% v/v), L-glutamine (4 mM) and antibiotic mixture (penicillin, streptomycin and amphotericin B) and incubated at 37°C with 5% CO2. […] The initial concentration for the proportion 5:7:5 was 100 μg/mL for octyl methoxycinnamate, 71.4 μg/mL for avobenzone, and 71.4 μg/mL for avobenzone derivative. These preparations were also diluted in PBS (pH 7.2) to generate samples with 8 different concentrations in a geometric progression (constant factor = 1.47). The highest final concentration of DMSO was 1%. Fibroblasts were seeded at a density of 10^4 cell/well and after 24 h of incubation (5% CO2; 37°C), they were treated with 8 different concentrations of the combinations in the wells in sextuplicate, incubated for 1 h (5% CO2; 37°C) and irradiated with UVA radiation of 9 J/cm^2. […]\nCell viability was measured using the NRU assay with the uptake of the vital dye neutral red into cellular lysosomes. […] After measuring the absorbance of both plates at 540 nm using a microplate reader (SynergyTM 2, Biotek), all data were analyzed by Phototox Software 2.0 (ZEBET, Germany), and the mean photo effect (MPE) was calculated. […]"}, "HaCaT keratinocytes [2]": {"system": "HaCaT keratinocytes", "assay": "Protection against intracellular UVA-induced ROS production (DCFH2-DA probe), HaCaT monolayer", "type": "cell-based", "settings": "UVA 4 J/cm^2", "method": "To evaluate intracellular ROS production, such as hydroxyl radical, hydrogen peroxide, nitrite and carbonate anion, the probe 2,7-dichlorodihydrofluorescein-diacetate (DCFH2-DA) was used. This probe can undergo hydrolysis by cellular esterases forming the compound DCFH, that can be converted by ROS into the fluorescent compound […] (DCF), measured at the end of the assay ([Kalyanaraman et al., 2012]; [Alam et al., 2013]). The assay was performed under the same conditions (cell type, density and exposure times) as the evaluation of cell viability in immortalized HaCaT keratinocytes.\nIn detail, 1 × 10^5 cells/well of HaCaT keratinocytes were seeded in 96-well plates and incubated for 24 h at 37°C in a 5% CO2 atmosphere. Then, cells were treated with the avobenzone derivative (31,25–1,000 μg/mL; constant factor: 2) for 1 h and the probe DCFH2-DA (10 µM) for 30 min, followed by 4 J/cm^2 of UVA radiation (Solar simulator Dr. Hönle type SOL-500, Planegg, Germany). This UV waveband was chosen because UVA and visible light are the most relevant radiations for ERO production ([Zastrow et al., 2009]; [Vandersee et al., 2015]). Quercetin (10 μg/mL) and norfloxacin (100 μg/mL) were used as antioxidant and pro-oxidant controls, respectively. The plates were measured using a microplate reader (Synergy™ HT, BioTek, United States) at 485 nm excitation and 528 nm emission. Results are expressed as a percentage of fluorescence in relation to the irradiated control, considered 100%."}, "HaCaT keratinocytes [3]": {"system": "HaCaT keratinocytes", "assay": "Cell viability of HaCaT keratinocytes (NRU assay)", "type": "cell-based", "settings": "SDS 100 μg/mL; for Cytotoxicity for HaCaT cells: avobenzone derivative 31.25–1,000 μg/mL, vs untreated control, 70% threshold ISO 10993-5", "method": "Prior to the beginning of the assay, cell viability was evaluated to exclude the possibility that the decrease in fluorescence intensity was related to cell death and not to antioxidant activity. HaCaT keratinocytes were cultured in DMEM supplemented with fetal bovine serum (10%), pyruvate (1 mM), penicillin (100 IU/mL) and streptomycin (100 μg/mL), seeded in 96-well plates (1 × 10^5 cells/well) and, 24 h later, treated with avobenzone derivative (31,25–1000 μg/mL; constant factor: 2). Cell viability was determined using the NRU assay ([Gaspar et al., 2013]; [Rangel et al., 2020]) and sodium dodecyl sulfate (SDS) was used as a positive control (100 μg/mL). Untreated cells absorbance at 540 nm were considered 100% of cell viability to calculate the percentage relative to each sample tested."}, "[4]": {"design": "method as in Santana Reis et al., 2014", "settings": "method not stated; ref Santana Reis et al., 2014; cited from earlier work"}, "[5]": {"system": "reconstructed human skin (RHS)", "assay": "UVA-induced intracellular ROS production (DCFH2-DA probe) in reconstructed human skin model", "type": "cell-based", "settings": "200 μg/mL, 25 µL topical 1 h; UVA 10 J/cm^2", "method": "In-house RHS models were prepared on 24-well cell culture inserts, with primary human fibroblasts and keratinocytes from foreskin (pooled from three donors) after approval by the Ethics Committee in Research Involving Human Beings—School of Pharmaceutical Sciences of Ribeirão Preto—USP (CAAE n° 35685220.3.0000.5403; Protocol CEP/FCFRP n° 551).\nPrimarily, the dermal compartment consisted of collagen type I (Corning®) and 1.14 × 10^5 normal human fibroblasts that were seeded into the insert (0.4 µm pore size; ThinCert™, Greiner Bio-One GmbH, Frickenhausen—Germany) and incubated overnight. After 20 h, 3.7 × 10^5 normal human keratinocytes were seeded on the top of the dermis mixture and kept submerged in an in-house prepared culture medium for 24 h, so the cells could form a monolayer. […]\nImmediately after irradiation and washing with PBS, the tissues were frozen in liquid nitrogen and 8 µm histological sections were obtained in a cryostat. Pictures were taken in an inverted Ti-S microscope (Nikon Instruments Inc., Holland), 488 nm, using 100 ms of exposure intensity and analyzed by ImageJ software ([Rasmussen et al., 2010]; [Marionnet et al., 2014]). Results of fluorescence intensity were normalized to area/pixels and expressed as percent fluorescence compared to untreated irradiated (NT + UV) control, considered 100%."}, "[6]": {"assay": "DPPH free radical scavenging", "settings": "30 min in the dark, absorbance 517 nm", "method": "The DPPH free radical scavenging method was conducted according to [Martins et al. (2016)], with modifications. This assay is based on the reduction of the 2,2-diphenyl-1-picrylhydrazyl radical by the antioxidant agent, acting as a hydrogen donor. DPPH is a stable radical due to its molecular conformation, capable of reacting with hydrogen/electron donors, generating its reduced form, accompanied by a reduction in its absorbance (517 nm) ([Kedare and Singh, 2011]). The antioxidant activity is then determined by monitoring the change in the color of the reaction medium, changing from violet to yellow ([Pisoschi and NEgulescu, 2012]).\nIn a 96-well plate, 100 µL of each sample were diluted in methanol. The concentrations used for avobenzone derivative under study were […] (constant factor: 2) and quercetin was used as a positive control for the test (14–0.109 μg/mL, constant factor: 2). The plate was covered and kept in a dark place for 30 min at room temperature. The absorbance reading was performed at 517 nm using a microplate reader (Synergy™ 2#, Biotek, United States), and the results obtained were used to calculate the inhibition percentages. […] The half maximum inhibitory concentration (IC50-DPPH) was calculated using the linear equation by replacing the value of y with 50 ([Chen et al., 2013])."}, "[7]": {"assay": "Photostability by UV spectrophotometry, solutions in isopropanol", "type": "physicochemical", "method": "To assess the photoprotective potential of the new UV filter’s derivative, as well as its combination with avobenzone and octyl methoxycinnamate (Cb), a photostability assay was conducted irradiating all samples at a dose of 27,6 J/cm^2 emitted by a UVA lamp (Philips UVA Actinic BL/10, Netherlands) ([ICH, 1996]; [1998]), while the negative controls were kept in a dark place. The derivative was tested at 100 μg/mL in isopropanol and the combinations Cb (avobenzone, octyl methoxycinnamate and avobenzone derivative) and Cc (avobenzone, octyl methoxycinnamate and ethylhexyl methoxycrylene were tested with a proportion of 4:8:5 (w/w), where the initial concentrations were 100 μg/mL for octyl methoxycinnamate, 50 μg/mL for avobenzone and 62.5 μg/mL for avobenzone derivative/ethylhexyl methoxycrylene. Solutions were analyzed by spectrophotometry in the 280–400 nm range. The results are expressed as a percentage of the area of irradiated samples related to the area of non-irradiated samples according to [Gaspar and Maia Campos (2006)] and [Tavares et al. (2020)]."}, "[8]": {"settings": "solutions in isopropanol, UVA dose 27,6 J/cm^2, area under curve of irradiated vs non-irradiated (100%)"}}, "note": "Where “and” joins values, the source holds several entries; their conditions need not be identical. Identical values can stand only once. Entries after “also recorded” stand apart in the source; their conditions may differ."}
{"smiles": "CC(C(=O)O)c1cccc(C(=O)c2ccccc2)c1", "note": "(stereo not drawn) [Ketoprofen, ketoprofen]", "values": [{"measurement": "SA (superoxide anion generation, NBT reduction at 560 nm)", "setting": "[1]; avobenzone derivative 1.0 mM, mean ± SEM, n = 3", "result": "116 ± 20.6"}]}
{"smiles": "N[C@@H](Cc1c[nH]cn1)C(=O)O", "note": "[L-histidine]", "values": [{"measurement": "Classification (photoreactivity)", "setting": "[1]", "result": "Non-photoreactive"}]}
{"smiles": "CCn1cc(C(=O)O)c(=O)c2cc(F)c(N3CCNCC3)cc21", "note": "[Norfloxacin, reference compound]", "values": [{"measurement": "MPE (mean photo effect)", "setting": "3T3 BALB/c fibroblasts; Phototox Software 2.0, one value per independent experiment (two)", "result": "0.568 and 0.520"}, {"measurement": "Increase of ROS production compared to NT + UV", "setting": "HaCaT keratinocytes [2]; 100 μg/mL", "result": "approx. 46%"}]}
{"smiles": "CCCCCCCCCCCCOS(=O)(=O)[O-].[Na+]", "note": "[SDS, sodium dodecyl sulfate]", "values": [{"measurement": "Cell viability", "setting": "HaCaT keratinocytes [3]; untreated cells = 100%", "result": "< 70", "unit": "%"}, {"measurement": "Cytotoxicity for HaCaT cells", "setting": "HaCaT keratinocytes [3]", "result": "cytotoxic"}]}
{"smiles": "O=C(N/N=C/c1ccc(O)cc1)c1ccc(O)cc1", "note": "[avobenzone derivative, (E)-4-hidroxi-N’-(4-hydroxybenzylidene)benzohydrazide]", "values": [{"measurement": "LogP", "setting": "[4]", "result": "1.32 ± 0.52"}, {"measurement": "Reduction in ROS generation compared to NT + UV", "setting": "[5]", "result": 30.7, "unit": "%"}, {"measurement": "IC50 (DPPH)", "setting": "[6]", "result": "18.2 ± 10.2", "unit": "µg/mL"}, {"measurement": "Classification (photoreactivity)", "setting": "[1]", "result": "Non-photoreactive"}, {"measurement": "Cytotoxicity for HaCaT cells", "setting": "HaCaT keratinocytes [3]", "result": "not cytotoxic"}, {"measurement": "Remaining absorption values after irradiation (%) UVA", "setting": "[7]; [8]", "result": "97.7 ± 2.5", "unit": "%"}, {"measurement": "Remaining absorption values after irradiation (%) UVB", "setting": "[7]; [8]", "result": "97.8 ± 2.1", "unit": "%"}, {"measurement": "Stability classification", "setting": "[7]; solutions, irradiated vs non-irradiated pair (p < 0.05 = photounstable)", "result": "Photostable"}, {"measurement": "Prediction model (phototoxicity)", "setting": "3T3 BALB/c fibroblasts; OECD TG 432", "result": "non phototoxic; also recorded: Non-Phototoxic"}, {"measurement": "Reduction in ROS generation compared to NT + UV", "setting": "HaCaT keratinocytes [2]; 125 μg/mL", "result": 37, "unit": "%"}, {"measurement": "Reduction in ROS generation compared to NT + UV", "setting": "HaCaT keratinocytes [2]; 250 μg/mL", "result": 31, "unit": "%"}, {"measurement": "Reduction in ROS generation compared to NT + UV", "setting": "HaCaT keratinocytes [2]; 500 μg/mL", "result": 58, "unit": "%"}, {"measurement": "ROS values higher than NT + UV (possible pro-oxidant effect)", "setting": "HaCaT keratinocytes [2]; 1,000 μg/mL", "result": 5, "unit": "%"}]}
{"smiles": "O=c1c(O)c(-c2ccc(O)c(O)c2)oc2cc(O)cc(O)c12", "note": "[quercetin, reference compound]", "values": [{"measurement": "IC50 (DPPH)", "setting": "[6]", "result": "2.85 ± 1.03", "unit": "µg/mL"}, {"measurement": "Decrease of ROS production compared to NT + UV", "setting": "HaCaT keratinocytes [2]; 10 μg/mL", "result": "approx. 67%"}]}
